Reference: ChEMBL document CHEMBL1159227, “Piperogalin, a new prenylated diphenol from Peperomia galioides” (1995)
Calls of active or inactive are those of the source. The calls are words filed in the database; no cut-off is given here.

Experiments:
[1] = system: Leishmania donovani; test: Antileishmanial activity against Leishmania donovani PP75 promastigotes assessed as immobilized parasites at 10 ug/ml after 24 hrs at 28 degC; format: functional, organism-based
[2] = system: Leishmania donovani; test: Antileishmanial activity against Leishmania donovani PP75 promastigotes assessed as total lysis of parasites at 25 ug/ml after 24 hrs at 28 degC; format: functional, organism-based
[3] = system: Leishmania amazonensis; test: Antileishmanial activity against Leishmania amazonensis promastigotes assessed as total lysis of parasites at 50 ug/ml after 24 hrs at 28 degC; format: functional, organism-based
[4] = system: Leishmania amazonensis; test: Antileishmanial activity against Leishmania amazonensis H142 promastigotes assessed as total lysis of parasites at 100 ug/ml after 24 hrs at 28 degC; format: functional, organism-based
[5] = system: Leishmania braziliensis; test: Antileishmanial activity against Leishmania braziliensis 2903 promastigotes assessed as immobilized parasites at 10 ug/ml after 24 hrs at 28 degC; format: functional, organism-based
[6] = system: Leishmania braziliensis; test: Antileishmanial activity against Leishmania braziliensis 2903 promastigotes assessed as total lysis of parasites at 25 ug/ml after 24 hrs at 28 degC; format: functional, organism-based
[7] = system: Trypanosoma cruzi; test: Antitrypanosomal activity against Trypanosoma cruzi Y trypomastigotes assessed as lysis of trypomastigotes at 250 ug/ml after 24 hrs at 4 degC; format: functional
[8] = system: Leishmania braziliensis; test: Antileishmanial activity against Leishmania braziliensis 2903 promastigotes assessed as total lysis of parasites at 50 ug/ml after 24 hrs at 28 degC; format: functional, organism-based
[9] = system: Leishmania donovani; test: Antileishmanial activity against Leishmania donovani PP75 promastigotes assessed as total lysis of parasites at 50 ug/ml after 24 hrs at 28 degC; format: functional, organism-based
[10] = system: Leishmania donovani; test: Antileishmanial activity against Leishmania donovani PP75 promastigotes assessed as total lysis of parasites at 100 ug/ml after 24 hrs at 28 degC; format: functional, organism-based
[11] = system: Leishmania amazonensis; test: Antileishmanial activity against Leishmania amazonensis promastigotes assessed as immobilized parasites at 10 ug/ml after 24 hrs at 28 degC; format: functional, organism-based
[12] = system: Leishmania amazonensis; test: Antileishmanial activity against Leishmania amazonensis promastigotes assessed as total lysis of parasites at 25 ug/ml after 24 hrs at 28 degC; format: functional, organism-based
[13] = system: Leishmania braziliensis; test: Antileishmanial activity against Leishmania braziliensis 2903 promastigotes assessed as total lysis of parasites at 100 ug/ml after 24 hrs at 28 degC; format: functional, organism-based
[14] = system: Leishmania braziliensis; test: Antileishmanial activity against Leishmania braziliensis 2903 promastigotes assessed as immobilized parasites at 100 ug/ml after 24 hrs at 28 degC; format: functional, organism-based
[15] = system: Leishmania braziliensis; test: Antileishmanial activity against Leishmania braziliensis 2903 promastigotes assessed as lysis of parasites at 10 ug/ml after 24 hrs at 28 degC; format: functional
[16] = system: Leishmania donovani; test: Antileishmanial activity against Leishmania donovani PP75 promastigotes assessed as lysis of parasites at 10 ug/ml after 24 hrs at 28 degC; format: functional
[17] = system: Leishmania amazonensis; test: Antileishmanial activity against Leishmania amazonensis promastigotes assessed as lysis of parasites at 10 ug/ml after 24 hrs at 28 degC; format: functional

| SMILES | Activity [1] | Activity [2] | Activity [3] | Activity [4] | Activity [5] | Activity [6] | Activity [7] | Activity [8] | Activity [9] | Activity [10] | Activity [11] | Activity [12] | Activity [13] | Activity [14] | Activity [15] | Activity [16] | Activity [17] |
| --- | --- | --- | --- | --- | --- | --- | --- | --- | --- | --- | --- | --- | --- | --- | --- | --- | --- |
| CC(C)=CCC/C(C)=C/CC/C(C)=C/Cc1c(O)cc(C)cc1O [GRIFOLIN] | Active | Active | Active | Active | Active | Active | 68% | Active | Active | Active | Active | Active | Active |  |  |  |  |
| CC(C)=CCC/C(C)=C/CC/C(C)=C/Cc1c(O)cc(C)c(C(=O)O)c1O [GRIFOLIC ACID] |  |  |  | Active |  |  | 0% |  |  | Active |  |  |  | Active |  |  |  |
| CC(C)=CCC/C(C)=C/Cc1c(O)cc(C)c(CC=C(C)C)c1O [PIPEROGALIN] |  | Active | Active | Active |  | Active | 42% |  | Active | Active |  | Active | Active |  | >90% | >90% | >90% |
